The subject of the test is E. coli. Kind of test: E. coli-induced meningitis death, C60(C3) given immediately before E. coli (Test 1). The note with it: 6 mg/kg i.p. C60(C3), again at 24 and 48 hours. Format: in vivo, B6 mice. As to the method: E. coli ATCC 10536 was cultured in Luria-Bertain (LB) broth (1% NaCl, 1% tryptone, 0.5% yeast extract) for 12 hours and was subcultured in fresh medium for another 3 h. The concentration of E. coli was determined with a spectrophotometer (Beckman Instrument, Somerset, N.J.), with an optical density at 600 nm of 1 equal to […] (Wang, S. D., et al., J. Immunol. 152:5014-5021). For the induction of meningitis, groups of three to four mice were given intracerebral injections directly into the temporal area of a volume of 5×10^5 E. coli cells diluted in saline. The 100% lethal dose (LD100) by intracerebral injection in B6 mice is 5×10^5 E. coli cells. The animals were observed every 12 hours for a total of 6 days. In some experiments, the brains were aseptically removed and were homogenized with 3% gelatin (Difco Laboratories, Detroit, Mich.) in PBS. The samples were serial diluted, poured in agar plates, and incubated at 37° C. overnight. The number of colony forming units (CFU) of E. coli was quantitated and was expressed as the mean±standard deviation per mouse. […] The growth curve of E. coli was determined in LB broth to evaluate the direct antimicrobial activity of C60(C3).
Groups of 10 B6 mice were inoculated intracerebrally with 5×10^5 E. coli per mouse. […] The mice were monitored for death every 12 hours for 6 days.

Each structure is given as a SMILES string.

For `C[C@@H]1C[C@H]2[C@@H]3CCC4=CC(=O)C=C[C@]4(C)[C@@]3(F)[C@@H](O)C[C@]2(C)[C@@]1(O)C(=O)CO` [dexamethasone], the “mice protected from E. coli-induced death” value came out at 20%.

The record behind these values is patent publication US6777445B2, “Fullerene pharmaceutical compositions for preventing or treating disorders” (priority 2000, dated 2004).
